Results from PubChem BioAssay (NCI).
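Tested at 5 concentrations; 48 h exposure; 96-well plates; endpoints linearly interpolated, else capped at highest concentration. Here, GI50 denotes the concentration required for 50% inhibition of growth. TGI: total growth inhibition.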

Legend:
Experiment in all cases: growth of human tumour cells (NCI), 48 h
[1] = test system: RXF 393 renal
[2] = test system: COLO 205 colon
[3] = test system: MALME-3M melanoma
[4] = test system: DU-145 prostate
[5] = test system: SNB-75 CNS
[6] = test system: OVCAR-4 ovarian
[7] = test system: SF-295 CNS
[8] = test system: KM12 colon
[9] = test system: SN12C renal
[10] = test system: SNB-19 CNS
[11] = test system: MDA-MB-231 breast
[12] = test system: SK-MEL-2 melanoma
[13] = test system: EKVX NSCLC
[14] = test system: SK-OV-3 ovarian
[15] = test system: OVCAR-3 ovarian
[16] = test system: RPMI-8226 leukemia
[17] = test system: LOX IMVI melanoma
[18] = test system: NCI-H522 lung
[19] = test system: ACHN renal
[20] = test system: K-562 leukemia
[21] = test system: 786-0 renal
[22] = test system: CAKI-1 renal
[23] = test system: BT-549 breast
[24] = test system: UACC-257 melanoma
[25] = test system: HOP-62 NSCLC
[26] = test system: A498 renal
[27] = test system: A549 NSCLC
[28] = test system: NCI-H460 lung
[29] = test system: HCT-15 colon
[30] = test system: T-47D breast
[31] = test system: M14 melanoma
[32] = test system: PC-3 prostate
[33] = test system: IGROV1 ovarian
[34] = test system: HCT-116 colon
[35] = test system: SF-539 CNS
[36] = test system: MDA-MB-435
[37] = test system: HOP-92 NSCLC
[38] = test system: HL-60(TB) leukemia
[39] = test system: CCRF-CEM leukemia
[40] = test system: UO-31 renal
[41] = test system: MCF7 breast
[42] = test system: U251 CNS
[43] = test system: NCI/ADR-RES ovarian
[44] = test system: SR leukemia
[45] = test system: HT29 colon
[46] = test system: SK-MEL-5 melanoma
[47] = test system: HCC-2998 colon
[48] = test system: OVCAR-5 ovarian
[49] = test system: NCI-H23 lung
[50] = test system: UACC-62 melanoma
[51] = test system: HS 578T breast
[52] = test system: OVCAR-8 ovarian
[53] = test system: MOLT-4 leukemia
[54] = test system: NCI-H226 lung
[55] = test system: SF-268 CNS
[56] = test system: TK-10 renal
[57] = test system: SK-MEL-28 melanoma
[58] = test system: SW-620 colon

With `O=C1Nc2cc(Cl)ccc2/C1=C\c1c(-c2ccc(F)cc2)nc2ccccn12` the GI50 [1] was 631 nM, the TGI [1] was 2190 nM and the GI50 [2] was 552 nM. For the same compound, the TGI [2] was 1940 nM, the GI50 [3] was 690 nM and the TGI [3] was 2410 nM. For the same compound, the GI50 [4] was 1490 nM, the GI50 [5] was 304 nM and the TGI [5] was 1340 nM. For the same compound, the GI50 [6] was 1450 nM, the TGI [6] was 3000 nM and the GI50 [7] was 376 nM. For the same compound, the TGI [7] was 1730 nM, the GI50 [8] was 573 nM and the TGI [8] was > 100000 nM. For the same compound, the GI50 [9] was 1030 nM, the GI50 [10] was 1150 nM and the TGI [10] was 22100 nM. It also gave a GI50 [11] of 1480 nM, a TGI [11] of 6380 nM and a GI50 [12] of 458 nM. The TGI [12] was 2190 nM, the GI50 [13] was 2770 nM and the TGI [13] was > 100000 nM. The GI50 [14] was 1050 nM, the TGI [14] was 2420 nM and the GI50 [15] was 424 nM. The TGI [15] was 2970 nM, the GI50 [16] was 1360 nM and the GI50 [17] was 723 nM. It also gave a TGI [17] of 2650 nM, a GI50 [18] of 239 nM and a TGI [18] of 919 nM. It also gave a GI50 [19] of 1250 nM, a TGI [19] of 3220 nM and a GI50 [20] of 320 nM. For the same compound, the TGI [20] was > 100000 nM, the GI50 [21] was 998 nM and the TGI [21] was 2590 nM. For the same compound, the GI50 [22] was 498 nM, the TGI [22] was 2130 nM and the GI50 [23] was 1210 nM. For the same compound, the TGI [23] was 5680 nM, the GI50 [24] was 5020 nM and the TGI [24] was 48500 nM. The GI50 [25] was 916 nM, the TGI [25] was 2290 nM and the GI50 [26] was 1310 nM. For the same compound, the TGI [26] was 6030 nM, the GI50 [27] was 690 nM and the TGI [27] was 2150 nM. The GI50 [28] was 408 nM, the TGI [28] was 1490 nM and the GI50 [29] was 686 nM. It also gave a TGI [29] of 7260 nM, a GI50 [30] of 1120 nM and a TGI [30] of 2960 nM. The GI50 [31] was 510 nM, the TGI [31] was 2570 nM and the GI50 [32] was 1140 nM. The TGI [32] was 5390 nM, the GI50 [33] was 1020 nM and the TGI [33] was 5820 nM. It also gave a GI50 [34] of 444 nM, a TGI [34] of 1630 nM and a GI50 [35] of 915 nM. It also gave a TGI [35] of 2950 nM, a GI50 [36] of 167 nM and a TGI [36] of 519 nM. For the same compound, the GI50 [37] was 4420 nM, the TGI [37] was 26500 nM and the GI50 [38] was 346 nM. For the same compound, the TGI [38] was 1460 nM, the GI50 [39] was 832 nM and the TGI [39] was > 100000 nM. It also gave a GI50 [40] of 686 nM, a TGI [40] of 2700 nM and a GI50 [41] of 387 nM. The TGI [41] was 2420 nM, the GI50 [42] was 541 nM and the TGI [42] was 2090 nM. For the same compound, the GI50 [43] was 277 nM, the TGI [43] was 1060 nM and the GI50 [44] was 112 nM. The TGI [44] was > 100000 nM, the GI50 [45] was 389 nM and the TGI [45] was 1340 nM. For the same compound, the GI50 [46] was 559 nM, the TGI [46] was 2040 nM and the GI50 [47] was 1100 nM. It also gave a TGI [47] of 2880 nM, a GI50 [48] of 1700 nM and a TGI [48] of 5810 nM. The GI50 [49] was 765 nM, the TGI [49] was 4450 nM and the GI50 [50] was 546 nM. For the same compound, the TGI [50] was 12400 nM, the GI50 [51] was 1660 nM and the TGI [51] was > 20400 nM. The GI50 [52] was 1980 nM, the TGI [52] was 8210 nM and the GI50 [53] was 563 nM. For the same compound, the TGI [53] was > 100000 nM, the GI50 [54] was 1320 nM and the TGI [54] was 3650 nM. For the same compound, the GI50 [55] was 1290 nM, the TGI [55] was > 24600 nM and the GI50 [56] was 1380 nM. It also gave a TGI [56] of 2990 nM, a GI50 [57] of 995 nM and a TGI [57] of 4590 nM. For the same compound, the GI50 [58] was 445 nM and the TGI [58] was 2600 nM.
